# Experimental data from publication PMC7018034, “Antimicrobial activity of Ib-M peptides against Escherichia coli O157: H7” (PLoS ONE, 2020).
# Several values for one entry are separate records, joined by “and”; a condition that tells them apart may be missing. Equal values may be shown once. Ends that are not written are not given here.
# Assays:
# VERO cells (ATCC CCL-81) = assay: Cytotoxicity, MTT; assay type: cell-based; conditions: 24 h exposure, 595 nm, mean ± S.D., triplicate in two independent experiments
# Experimental: VERO cells at a concentration of 3x10^4 cells/mL were plated in 96 flat-bottom wells and incubated for 24 hours at 37°C in a 5% CO2 atmosphere. Subsequently, the cells were exposed to 1:2 serial dilutions of Ib-M peptides in the range from 400 to 1.6 μM and the reference antibiotics between 3200 and 1.6 μM. Control cells were maintained without peptides or reference antibiotics. After 24 hours of incubation, VERO cells viability was determined using the MTT (3- (4,5-dimethiazol-2-yl) -2,5-diphenyltetrazole bromide) colorimetric technique (Mosmann, 1983). To do so, 20 μL/well of MTT was added at a concentration of 5 mg/mL and incubated for 4 hours. After that time, the culture medium was removed from the wells, and 100 μL of dimethylsulfoxide was added to solubilize the formazan crystals. Absorbance was determined by spectrophotometry using a wavelength of 595 nm.
# The 50% cytotoxic concentrations (CC50) were calculated by sigmoid regression analysis from the inhibition percentages using the XLFit program (^©2019 IDBS). The Selectivity Index (SI) was calculated as the ratio between CC50 in VERO cells and the MICs in E. coli O157: H7 [17]. For those compounds whose CC50 could not be determined, the maximum evaluated concentration was used to calculate the respective SI.
# [1] = test system: E. coli O157: H7 (ATCC 43888); assay: microbe, parasite or virus in culture; assay type: cell-based, Escherichia coli O157: H7; conditions: for SI (selectivity index) E. coli O157: H7 ATCC 43888: ratio CC50 in VERO cells / MIC in ATCC 43888, maximum evaluated concentration used where CC50 not determined
# Experimental: (§1) MIC was determined using the microdilution method as described in protocol M07-A9 of the Clinical and Laboratory Standards Institute. Briefly, 1:2 serial dilutions of Ib-M peptides in MHB were placed in a 96-well round-bottom plate at concentrations ranging from 100 to 0.05 μM; or reference antibiotics STP and GNT between 200 to 0.1 μM. The bacterial inoculum was prepared from a subculture of E. coli O157: H7 (ATCC 43888 or AC188) in LBB incubated for 18–24 hours at 35 ± 2°C before to the test. The bacteria suspension was diluted to 1x10^8 colony forming units (CFU)/mL, to obtain a turbidity equivalent to 0.5 on the McFarland scale, confirmed by spectrophotometry upon reaching an absorbance between 0.08–0.1 at a wavelength of 625 nm; then a 1:200 dilution in MHB was performed to obtain a final concentration of 5x10^5 CFU/mL. The diluted bacterial suspension was added to the 96-well plate containing the serially diluted peptides. The final volume of 200 μL per well consisted of 100 μl of the compound and 100 μL of diluted bacteria suspension. Negative and positive growth controls were performed by adding only MHB or E. coli O157: H7 with MHB to the wells, respectively. At the end of the incubation time, MIC was determined as the lowest compound concentration at which no bacterial growth was observed.
# [2] = test system: E. coli O157: H7 clinical isolate (AC188); assay: microbe, parasite or virus in culture; assay type: cell-based, Escherichia coli O157: H7; conditions: for SI (selectivity index) E. coli O157: H7 AC188: ratio CC50 in VERO cells / MIC in AC188, maximum evaluated concentration used where CC50 not determined
# Experimental: as §1
# [3] = test system: E. coli O157: H7 (ATCC 43888); assay: microbe, parasite or virus in culture; assay type: cell-based, Escherichia coli O157: H7
# Experimental: (§2) MBC was determined as described in the M26-A protocol of the CLSI, 1999 [13]. […] Blood agar cultures were incubated at 35 ± 2°C for 18–24 hours, and the number of CFU was estimated.
# [4] = test system: E. coli O157: H7 clinical isolate (AC188); assay: microbe, parasite or virus in culture; assay type: cell-based, Escherichia coli O157: H7
# Experimental: as §2
# [5] = test system: E. coli O157: H7 (ATCC 43888); assay type: cell-based, Escherichia coli O157: H7; conditions: lag phase, 0.5xMIC, at 24 hour, turbidity at 595 nm
# Experimental: The kinetics of cell growth of E. coli O157: H7 in the presence of the peptides were followed during 24 hours. The tests were performed with the reference strain ATCC 43888, and the antibacterial activity of the compounds was evaluated in the latency phase (lag phase) and the logarithmic phase (log phase).
# For the lag phase, E. coli O157: H7 at 5x10^5 CFU/mL with MHB in 96-well plate was treated with Ib-M peptides at a concentrations of 0.5xMIC, 1xMIC, 2xMIC in a final volume of 200 μL/well for 24 hours at 37°C. The turbidity was determined spectrophotometrically at 595 nm for samples taken at 0, 2, 4, 6, 8, 10, 12 and 24 hours.
# E. coli = test system: E. coli; parameters: method as in PMID 29671805, PMID 19952307; conditions: in vitro activity reported against E. coli; cited from earlier work
# [6] = strain ATCC 43888, MHB, 5x10^5 CFU/mL, mean ± S.D., triplicate in two independent experiments
# [7] = clinical isolate AC188, MHB, 5x10^5 CFU/mL, mean ± S.D., triplicate in two independent experiments
# [8] = strain ATCC 43888, colony count <= 10 on blood agar, mean ± S.D., triplicate in two independent experiments
# [9] = clinical isolate AC188, colony count <= 10 on blood agar, mean ± S.D., triplicate in two independent experiments
Molecule,CC50 VERO Cells (VERO cells (ATCC CCL-81)),"MIC ([1]; Escherichia coli, ATCC43888)",SI (selectivity index) E. coli O157: H7 ATCC 43888 [1],MIC ([2]; Escherichia coli),SI (selectivity index) E. coli O157: H7 AC188 [2],"MBC ([3]; Escherichia coli, ATCC43888)",MBC ([4]; Escherichia coli),"MIC [1, 6]","MIC [2, 7]","MBC [3, 8]","MBC [4, 9]",percentage of E. coli growth inhibition [5],MIC (E. coli)
"CNC(C)C1CCC(N)C(OC2C(N)CC(N)C(OC3OCC(C)(O)C(NC)C3O)C2O)O1 (stereo not shown) [GNT, Gentamicin, reference compound]",> 3200 µM and >3200 ± 0 µM,1.8 ± 0.6 µM,>1777.8,2.3 ± 0.9 µM,>1391.3,4.7 ± 1.7 µM,4.2 ± 1.6 µM,–,–,–,–,–,–
"[H]/N=C(/N)N[C@H]1[C@H](O)[C@@H](O)[C@H](O[C@@H]2O[C@@H](C)[C@](O)(C=O)[C@H]2O[C@@H]2O[C@@H](CO)[C@H](O)[C@@H](O)[C@@H]2NC)[C@@H](N/C(N)=N\[H])[C@@H]1O [STP, Streptomycin, reference compound]",>3200 ± 0 µM,9.4 µM,>340.4,66.7 µM,>48,11.5 µM,108 µM,9.4 ± 3.4 µM,66.7 ± 25.8 µM,11.5 ± 2.6 µM,108.3 ± 49.2 µM,–,–
EWGRRMMGRGPGRRMMRRWW-NH2 [Ib-M4],> 400 ± 0.0 µM,–,–,–,–,–,–,12.5 ± 0.0 µM,6.3 ± 0.0 µM,22.9 ± 5.1 µM,15.6 ± 10.3 µM,–,–
EWGRRMMGRGPGRRMMRWWR-NH2 [Ib-M1],395.2 ± 18.3 µM,–,–,–,–,–,–,4.7 ± 1.7 µM,1.6 ± 0.0 µM,6.3 ± 0.0 µM,3.7 ± 1.3 µM,higher than 63%,–
EWGRRMMGWGRGRRMMRRWW-NH2 [Ib-M6],310.9 ± 4.4 µM,–,–,–,–,–,–,9.4 ± 3.4 µM,4.7 ± 1.7 µM,11.5 ± 7.3 µM,10.4 ± 3.2 µM,–,–
EWGRRMMGWRPGRRMMRRWW-NH2 [Ib-M5],315.3 ± 49.1 µM,–,–,–,–,–,–,8.3 ± 3.2 µM,4.7 ± 1.7 µM,15.6 ± 7.7 µM,7.3 ± 2.6 µM,–,–
EWGRRMMGWRPGRRMMRWWR-NH2 [Ib-M2],197.5 ± 2.4 µM,–,–,–,–,–,–,4.7 ± 1.7 µM,3.7 ± 1.28 µM,6.8 ± 3.1 µM,4.2 ± 1.6 µM,–,–
lactoferricin,–,–,–,–,–,–,–,–,–,–,–,–,2 µM
magainin 2,–,–,–,–,–,–,–,–,–,–,–,–,8 µM
